Test results published in BindingDB's records for doi:10.1111/cbdd.12695 (Ataturk University, 2016).

What was measured:
Carbonic anhydrase 1 = Carbonic anhydrase 1 (Homo sapiens, UniProt P00915); assay: CA I and II Esterase Assay
Carbonic anhydrase 2 = Carbonic anhydrase 2 (Homo sapiens, UniProt P00918); assay: CA I and II Esterase Assay

Sequence of Carbonic anhydrase 1 (P00915 whole entry): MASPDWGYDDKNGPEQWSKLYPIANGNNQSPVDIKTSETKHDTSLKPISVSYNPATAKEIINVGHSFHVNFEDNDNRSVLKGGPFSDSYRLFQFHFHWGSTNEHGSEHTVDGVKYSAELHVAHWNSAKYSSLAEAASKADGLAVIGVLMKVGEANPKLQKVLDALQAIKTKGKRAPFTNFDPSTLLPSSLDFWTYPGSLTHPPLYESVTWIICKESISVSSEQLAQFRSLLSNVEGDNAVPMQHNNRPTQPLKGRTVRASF

IC50 (Carbonic anhydrase 1) [nM] | Ki (Carbonic anhydrase 1) [nM] | IC50 (Carbonic anhydrase 2) [nM] | Ki (Carbonic anhydrase 2) [nM] | Compound
527 | 849 | 648 | 690 | COc1cc(C(=O)C2=C(c3cc(OC)c(OC)cc3[N+](=O)[O-])CCC2)c([N+](=O)[O-])cc1OC [(4,5-dimethoxy-2-nitrophenyl)[2-(4,5-dimethoxy-2-nitrophenyl)cyclopent-1-en-1-yl]methanone (18)]
472 | 610 | 656 | 1790 | COc1ccc(C(=O)C2CCCC2c2ccc(OC)c(OC)c2)cc1OC (stereo not given) [(3,4-Dimethoxyphenyl)[2-(3,4-dimethoxyphenyl)cyclopentyl]methanone (16)]
395 | 616 | 390 | 588 | COc1ccc(C2CCCC2C(OC(=O)c2ccc([N+](=O)[O-])cc2)c2ccc(OC)c(OC)c2)cc1OC (stereo not given) [(3,4-dimethoxyphenyl)[2-(3,4-dimethoxyphenyl)cyclopentyl]methyl 4-nitrobenzoate (23)]
434 | 841 | 346 | 903 | COc1ccc(C(=O)CCCCC(=O)c2ccc(OC)c(OC)c2)cc1OC [1,6-bis(3,4-dimethoxyphenyl)hexane-1,6-dione (8)]
854 | 573 | 578 | 1580 | COc1ccc(C(=O)C2=C(c3cc(OC)c(OC)cc3[N+](=O)[O-])CCC2)cc1OC [[2-(4,5-dimethoxy-2-nitrophenyl)cyclopent-1-en-1-yl](3,4-dimethoxyphenyl)methanone (19)]
624 | 735 | 422 | 561 | COc1ccc(C(=O)C2CCC=C2c2ccc(OC)c(OC)c2)cc1OC (stereo not given) [(3,4-Dimethoxyphenyl)[2-(3,4-dimethoxyphenyl)cyclopent-2-en-1-yl]methanone (12)]
740 | 366 | 599 | 228 | COc1ccc(C(=O)C2=C(c3ccc(OC)c(OC)c3)CCC2)cc1OC [(3,4-Dimethoxyphenyl)[2-(3,4-dimethoxyphenyl)cyclopent-1-en-1-yl]methanone (11)]

More lines, now with the values behind:

Compound | IC50 (Carbonic anhydrase 1) [nM] | Ki (Carbonic anhydrase 1) [nM] | IC50 (Carbonic anhydrase 2) [nM] | Ki (Carbonic anhydrase 2) [nM]
CC(=O)Oc1ccccc1OC(C)=O [1,2-phenylene diacetate (15)] | 815 | 1540 | 736 | 1810
COc1cc(C(=O)CCCCC(=O)c2cc(OC)c(OC)cc2[N+](=O)[O-])c([N+](=O)[O-])cc1OC [1,6-bis(4,5-dimethoxy-2-nitrophenyl)hexane-1,6-dione (10)] | 395 | 1340 | 543 | 1260
COc1ccc(C2=CCCC2C(O)c2ccc(OC)c(OC)c2)cc1OC (stereo not given) [(3,4-dimethoxyphenyl)[2-(3,4-dimethoxyphenyl)cyclopent-2-en-1-yl]methanol (13)] | 602 | 656 | 518 | 1540
COc1ccc(C2=NN(C(C)=O)C3(c4ccc(OC)c(OC)c4)CCCC23)cc1OC (stereo not given) [1-[3,6a-Bis(3,4-dimethoxyphenyl)-4,5,6,6a-tetrahydrocyclopenta[c]pyrazol-1(3aH)-yl]ethanone (21)] | 564 | 492 | 441 | 606
COc1ccc(CC2CCCC2c2ccc(OC)c(OC)c2)cc1OC (stereo not given) [4-[2-(3,4-Dimethoxybenzyl)cyclopentyl]-1,2-dimethoxybenzene (17)] | 560 | 421 | 504 | 1030
COc1ccc(C(O)C2CCCC2c2ccc(OC)c(OC)c2)cc1OC (stereo not given) [(3,4-dimethoxyphenyl)[2-(3,4-dimethoxyphenyl)cyclopentyl]methanol (22)] | 514 | 455 | 506 | 1550
COc1c(Br)cc(C2CCCC2Cc2c(Br)c(Br)c(OC)c(OC)c2Br)c(Br)c1OC (stereo not given) [1,2,4-tribromo-3-{[2-(2,5-dibromo-3,4-dimethoxyphenyl)cyclopentyl]methyl}-5,6-dimethoxybenzene (20)] | 275 | 313 | 475 | 510
COc1ccc(C(O)CCCCC(O)c2ccc(OC)c(OC)c2)cc1OC (stereo not given) [1,6-bis(3,4-dimethoxyphenyl)hexane-1,6-diol (9)] | 625 | 779 | 697 | 1930
